Data published in patent US11834698B2, “Process for determining enzyme activity in a cell by activity-based reporter gene technology (ABRGT)” (INDIAN INSTITUTE OF SCIENCE EDUCATION AND RESEARCH, priority 2018, dated 2023).
Peptide text beside a SMILES is read from it. * marks the point of attachment. Cbz = O=C(OCc1ccccc1)*; CH2F = FC*

Columns and labels:
[1] = target: T1, caspase-7 GFPspark (Homo sapiens, UniProt P55210); experiment: AbRGT FRET imaging / acceptor photobleaching, caspase-7 GFPspark in HEK-293 cells; format: cell-based
T1 construct: host or cells: MCF-7, HEK-293
T1 sequence (P55210 24-198 limits assumed): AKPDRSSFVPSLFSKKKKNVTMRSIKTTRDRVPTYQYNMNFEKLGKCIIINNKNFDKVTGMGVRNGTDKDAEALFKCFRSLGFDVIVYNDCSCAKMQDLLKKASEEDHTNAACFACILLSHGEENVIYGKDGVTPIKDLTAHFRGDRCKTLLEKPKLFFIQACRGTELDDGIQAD
T1 sequence (P55210 207-303 limits assumed): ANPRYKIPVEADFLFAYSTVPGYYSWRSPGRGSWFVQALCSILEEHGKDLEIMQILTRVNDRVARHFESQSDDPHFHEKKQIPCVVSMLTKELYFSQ
Protocol: FIGS. 14A and 14B depict specific detection of caspase-7 GFPspark in HEK-293 cells. Caspase-7 GFPspark (1 μg) transfected HEK-293 cells were treated with STS (1 μM) for 10 h and labelled with the probe 1 (1 μM) for 2 h. […] The acceptor photobleaching experiment was performed to confirm the FRET signal as described previously. Bar graph representing a rise in GFP intensity in ROI after rhodamine photobleaching was 87 a.u. as compared to the unbleached background, i.e., 13 a.u. FRET efficiency was calculated to be 33±2%.
(§1) Plasmids and transient transfection: GFPspark tagged plasmids; caspase-3 GFPspark tag (Cat: HG10050-ACG), caspase-7 GFPspark tag (HG10049-ACG), caspase-8 GFPspark (HG10078-ACG), caspase-9 GFPspark (HG11151-ACG) and cathepsin B GFPspark (HG10483-ACG) were procured from Sino Biological. For transfection, cells were seeded in a 6-well plate at a density of 0.4 million cells/well. […] 24 h post-transfection, cells were visualized under the GFP filter for GFPspark expression under fluorescence microscope at 10× magnification.
(§2) Labelling of active caspases in apoptotic cells with FABP: After 24 h of transfection, cells were treated with STS (1 μM) drug or TRAIL (1 μg/ml) for apoptotic induction and incubated for 2, 4, 6 and 8 h at 37° C. in a humidified atmosphere of 5% CO2/95% air. […] Slides were then imaged for GFP, FRET and rhodamine fluorescence signals under confocal microscopy. […]
(§3) Fluorescence imaging studies, FRET procedure: Images were collected on Zeiss LSM710 confocal microscope with 25 mW argon laser using Zen10 software. […] Images were collected in the three channels; GFP channel, argon laser tuned at 488 nm with 2% laser intensity and fluorescence emission was collected in emission range of 490-550 nm; rhodamine channel, argon laser tuned to 561 nm laser with 2% laser intensity and fluorescence emission was collected in range 550-650 nm and FRET channel with excitation laser of GFPSPARK channel and emission range of rhodamine channel. […]

[2] = target: T2, caspase-9 GFPspark (Homo sapiens, UniProt P55211); experiment: AbRGT FRET imaging / acceptor photobleaching, caspase-9 GFPspark in HEK-293 cells; format: cell-based
T2 construct: host or cells: MCF-7, HEK-293
T2 sequence (P55211 1-416): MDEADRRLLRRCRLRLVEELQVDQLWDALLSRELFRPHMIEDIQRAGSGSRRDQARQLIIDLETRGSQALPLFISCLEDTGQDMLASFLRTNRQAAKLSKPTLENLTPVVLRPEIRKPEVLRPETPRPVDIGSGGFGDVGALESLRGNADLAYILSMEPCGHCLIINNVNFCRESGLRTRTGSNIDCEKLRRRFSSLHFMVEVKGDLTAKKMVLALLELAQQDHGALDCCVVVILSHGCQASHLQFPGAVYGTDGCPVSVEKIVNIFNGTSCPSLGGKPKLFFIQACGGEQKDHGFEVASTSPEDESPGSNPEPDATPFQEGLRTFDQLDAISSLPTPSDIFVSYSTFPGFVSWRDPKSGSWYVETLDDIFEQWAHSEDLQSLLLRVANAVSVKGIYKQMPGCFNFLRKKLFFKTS
Protocol: FIGS. 17A and 17B depict specific detection of caspase-9 GFPspark in HEK-293 cells. Casp-9 GFPspark (1 μg) transfected HEK-293 cells were treated with STS (1 μM) for 4 h and labelled with the probe 1 (1 μM) for 2 h. […] The acceptor photobleaching was performed to confirm the FRET signal as described previously. The bar graph representing the rise in GFP intensity in ROI after rhodamine photobleaching was 75 a.u. as compared to the unbleached background, i.e., 10 a.u. FRET efficiency was calculated to be 35±2%.
as §1, §2, §3

[3] = HEK-293, STS 1 μM 10 h, probe 1 μM 2 h
[4] = HEK-293, STS 1 μM 4 h, probe 1 μM 2 h

Molecule	effect of inhibitor on FRET signal ([1]; HEK-293, inhibitor 50 μM pre-treatment, STS 10 h)	effect of inhibitor on FRET signal ([2]; HEK-293, inhibitor 50 μM pre-treatment, STS 4 h)	calculated FRET efficiency [1, 3] [%]	rise in GFP intensity in ROI after rhodamine photobleaching [1, 3] [a.u.]	calculated FRET efficiency [2, 4] [%]	rise in GFP intensity in ROI after rhodamine photobleaching [2, 4] [a.u.]
COC(=O)C[C@H](NC(=O)[C@H](C)NC(=O)[C@@H](NC(=O)OCc1ccccc1)C(C)C)C(=O)CF [Z-VAD-FMK] (Cbz-Val-Ala-Asp(OMe)-CH2F)	abolished	abolished	–	–	–	–
Rhodamine-VAD-fluoromethyl ketone [probe 1]	–	–	33±2	87	35±2	75
